One data set deals with human fibroblasts. The experiment in a line: Confocal immunofluorescent microscopy of fixed fibroblasts. It counts as cell-based. As to conditions: 1 μM, 30 min, 1 h and up to 4 h. As for the experimental part: For immunocytochemistry trypsinised human fibroblasts (5,000 cells per well) were plated onto 13 mm diameter glass coverslips in 24 well plates overnight. Following incubation for 4 h at 37° C. with 1 μM TPP-PNA conjugates, cells were fixed with 4% paraformaldehyde (PFH) in TBS for 30 min, washed with TBS and incubated with 10% FCS/0.1% Triton X-100/TBS (TBST) for 10 min. The IgG fraction of anti-triphenylphosphonium serum (1:500) was diluted in TBST, then added and incubated overnight at 4° C. The IgG fraction of preimmune serum was used as a control. After washing with TBS (3×5 min) the cells were incubated with anti-rabbit IgG Oregon green fluorophore-conjugated secondary antibody diluted 1:100 in TBS for 15 min in the dark. The cells were washed in TBS and incubated for another 15 min with streptavidin conjugated CY3 (1:200, Molecular Probes) in the dark, to detect biotin. Cells were then washed in TBS, mounted in DABCO/PVA medium (15 g PVA, 15 g 1,4-diazabicyclo (2,2,2) octane in 30% glucerol in 0.1 M Tris, pH 8.5) and mounted onto coverslips. […]
The localisation of TPP-PNA conjugate within human fibroblasts was also determined by fixing cells that had been incubated with TPP-PNA, PNA or without any additions for up to 4 h and visualising the localisation of the PNA by confocal immunofluorescent microscopy (FIG. 6). […]

The subject of the next data set is PAX2 mRNA. The experiment in a line: Down regulation of PAX2 protein expression (western blot) in P388 cells. Particulars: 1 μM; for PAX2 protein expression: over 4 days. It counts as cell-based, mouse. Background: A western blot detects proteins with antibodies after separation by electrophoresis.
The test system of data set [1] is P388 leukemia cancer cells. The experiment in a line: General cell proliferation of treated P388 cells. Type of data set: cell-based, mouse. Particulars: 1 μM. An excerpt: To investigate the biological effects of the anti-PAX2 TPP-fluPNA conjugate we used a mouse cell line that highly expresses the PAX2 protein. […] This is most likely due to the absence of the cation that effectively delivers the PNA to the cells.

Another data set deals with HNF4α pre-mRNA. Nature of the data set: RT-PCR of HNF4α mRNA, exon 9 skipping in BNL-CL2 liver cells. Type of data set: cell-based, mouse. The protocol:
A mouse liver cell line, BNL-CL2, was grown at 37° C. and 5% CO2 in humidified atmosphere in Dulbecco's Modified Eagle's Medium supplemented with 10% inactivated FBS, 100 units.mL−1 penicillin, and 100 μg.mL−1 streptomycin, but without sodium pyruvate. To culture the cells with PNA, cells were seeded into a 96-well-plate, followed 16 h later by addition of 1 μM TPP-fluPNA alone or in an aqueous solution of 150 μM Chloroquine, and cultured for another 70 h. Images were acquired using a Zeiss inverted confocal microscope with 488 nm excitation wavelength light for tracking the TPP-fluPNA. Mitochondria specific dye MitoTracker Red CMXRos was added into cultured medium 2 h before taking confocal images using 578 nm excitation wavelength light.
Total RNA was extracted from cells cultured with either fluoresceinated or non-fluoresceinated TPP-PNA, or with PNA dissolved in 150 μM Chloroquine, or with medium controls for 24 h or 72 h. The concentration of extracted RNA was quantified using a NanoDrop spectrophotometer, and 1 μg of total RNA was reverse transcribed into cDNA using Invitrogen SuperScript III and random primers. […]. […]

The test system of a further data set is P388 cells. Nature of the data set: Gel/blot detection of PNA and phosphonium in fractions of conjugate-treated P388 cells. It counts as cell-based, mouse. As to conditions: after treatment with TPP-PNA, FIG. 5D. The protocol: Cells (143B, human fibroblasts, COS-7, P388 and IMCD) were grown at 37° C. and 5% CO2 in humidified atmosphere in Dulbecco's modified Eagle's medium supplemented with 10% inactivated foetal calf serum (FCS). All cell culture media contained 100 units.mL^−1 penicillin, and 100 μg.mL^−1 streptomycin. Protein was quantitated by the bicinchoninic acid assay. Cells were incubated with 1 μM TPP-PNA or with PNA alone for the indicated times. The disulfide bond in the TPP-PNA is stable in the oxidizing extracellular environment but is labile in the reducing cytoplasmic mulieu (FIG. 1).
For conjugate detection, 143B cell lysates treated with TPP-PNA conjugates (˜5 nmol) in 20 μL loading buffer (50 mM Tris, 4% SDS, 12% glycerol, 2% 2-mercaptoethanol, 0.01% coomassie brilliant blue) were separated on 18.5% Tris-tricine gels using a BioRad Mini Protean system (Schagger and von Jagow, 1987). For PAX-2 detection, P388 and IMCD cell lysates in loading buffer were resolved on 12.5% Tris-glycine gels (Laemmli, 1970). […]
The P388 cells were treated as described before, the lysates were resolved on Tris-tricine gels and the TPP-fluPNA conjugates were detected using a GelDoc fluorescence imager. […]

Here are results for 5 substances from patent US20080108545A1, “Peptide Nucleic Acid Conjugates and Uses Thereof” (UNIVERSITY OF OTAGO, priority 2003, published 2008).

Method for PAX2 mRNA: Rabbit anti-PAX2 polyclonal antibody (Zymed) diluted 1:1000 in TBS, 0.1% fat free milk powder, 0.1% Tween-20 was used for PAX-2 detection following overnight incubation with the membrane. After 3×10 min washes in TBS, 0.1% Tween-20, horseradish peroxidase conjugated goat antirabbit IgG (1:10,000, Biorad) was used as a secondary antibody. To detect biotin, horse radish peroxidase conjugated extravidin (1:3,000, Sigma) was used. In both cases secondary antibody binding was carried out for 1 h at room temperature, followed by 3×10 min washes in TBS and visualized by chemiluminescence using a Pierce Super Signal R chemiluminescence substrate with Kodak X-OMAT™ AR imaging film.

Take “Biotin-XX-GTTGGCTCTCT-X-Cys-CO2H [bioPNA]”: the “Uptake of unconjugated PNA” value in the data set with human fibroblasts is listed as “uptake (red) only after 4 h”.

For the substance “Fluoroscein-XX-TTCACACCCCCGTGCC-X-Cys-CO2H (5' fluorescein via linkers, 3' linker and cysteine, further chemistry not given here) [unmodified anti-PAX2 PNA, unconjugated fluoroscein-tagged PNA oligomer targeting human and mouse PAX2 mRNA, reference compound]”, the PAX2 protein expression entry with PAX2 mRNA is “did not decrease PAX2 protein levels”.

“TPP-fluPNA(PAX-2): Fluoroscein-XX-TTCACACCCCCGTGCC-X-Cys-CO2H PNA targeting PAX2 mRNA, disulfide linked to thiobutyltriphenylphosphonium (all peptide nucleic acid (PNA); 5' fluorescein via linkers, 3' linker-Cys disulfide-linked to triphenylphosphonium)”: the General cell proliferation result in data set [1] is recorded as “did not affect general cell proliferation”. In the data set on PAX2 mRNA, the “Duration of inhibition of PAX2 expression” value was determined as 4 days and the PAX2 protein expression entry is “significant inhibition of PAX2 expression”.

With “TPP-lysPNA(HNF4-α): Lys-GTCCCAGACGGT-Cys-COOH PNA targeting mouse HNF4α mRNA, conjugated with TBTP”, the “Exon 9-skipped splice variant RT-PCR product” value is “A 352 bp RT-PCR product was observed” in the data set with HNF4α pre-mRNA (1 μM in cell culture media for 70 h, no transfection reagent) and “A 352 bp RT-PCR product was observed” with HNF4α pre-mRNA (transfected using chloroquine).

For thiobutyltriphenylphosphonium [TBTP], the “Localisation of phosphonium cation, anti-phosphonium serum” value in the data set on P388 cells is reported as “detected in the mitochondrial fractions”.
